This note sets out measurements from patent US20240109865A1, “INDAZOLE COMPOUNDS AS KINASE INHIBITORS” (TYRA BIOSCIENCES, INC., priority 2020, published 2024).

As a reminder, the Kd is a measure of binding affinity in units of concentration. A high value points to weaker binding.

Common to all, as to assay: Kinase assay, binding constants (Kd), kinase-tagged T7 phage, qPCR
(In qPCR the cycle at which signal appears reflects the starting amount.)

One assay has as its target FGFR4 (Homo sapiens (Human), UniProt P22455). The procedure: (§1) Kinase-tagged T7 phage strains were prepared in an E. coli host derived from the BL21 strain. E. coli were grown to log-phase and infected with T7 phage and incubated with shaking at 32° C. until lysis. The lysates were centrifuged and filtered to remove cell debris. Streptavidin-coated magnetic beads were treated with biotinylated small molecule ligands for 30 minutes at room temperature to generate affinity resins for kinase assays. The liganded beads were blocked with excess biotin and washed with blocking buffer SeaBlock (Pierce), […], 1 mM DTT to remove unbound ligand and to reduce non-specific binding.
(§2) Test compounds were prepared as 111λ stocks in 10000 DMS0. Kds were determined using an 11-point 3-fold compound dilution series with three DMSO control points. […] The compounds were then diluted directly into the assays such that the final concentration of DMSO was 0.9%. All reactions performed in polypropylene 384-well plate. Each was a final volume of 0.02 ml. […] The beads were then re-suspended in elution buffer (1×PBS, 0.05% Tween […] non-biotinylated affinity ligand) and incubated at room temperature with shaking for 30 minutes. The kinase concentration in the eluates was measured by qPCR.
(§3) Binding constants were calculated with a standard dose-response curve using the Hill equation: […]
(§4) The Hill Slope was set to −1. Curves were fitted using a non-linear least square fit with the Levenberg-Marquardt algorithm.

Another assay addresses FGFR2 (Homo sapiens (Human), UniProt P21802). The procedure: as §1, §2, §3, §4
In a further assay the target is FGFR3 (Homo sapiens (Human), UniProt P22607). The procedure: as §1, §2, §3, §4
Another assay has as its target FGFR3 (V555M) (Homo sapiens (Human), UniProt P22607, V555M). Conditions: V555M mutant. The procedure: as §1, §2, §3, §4
The target of the next assay is FGFR1 (Homo sapiens (Human), UniProt P11362). The method, then:
as §1, §2, §3, §4

Sequence of FGFR3 (V555M) (P22607 23-806 V555M): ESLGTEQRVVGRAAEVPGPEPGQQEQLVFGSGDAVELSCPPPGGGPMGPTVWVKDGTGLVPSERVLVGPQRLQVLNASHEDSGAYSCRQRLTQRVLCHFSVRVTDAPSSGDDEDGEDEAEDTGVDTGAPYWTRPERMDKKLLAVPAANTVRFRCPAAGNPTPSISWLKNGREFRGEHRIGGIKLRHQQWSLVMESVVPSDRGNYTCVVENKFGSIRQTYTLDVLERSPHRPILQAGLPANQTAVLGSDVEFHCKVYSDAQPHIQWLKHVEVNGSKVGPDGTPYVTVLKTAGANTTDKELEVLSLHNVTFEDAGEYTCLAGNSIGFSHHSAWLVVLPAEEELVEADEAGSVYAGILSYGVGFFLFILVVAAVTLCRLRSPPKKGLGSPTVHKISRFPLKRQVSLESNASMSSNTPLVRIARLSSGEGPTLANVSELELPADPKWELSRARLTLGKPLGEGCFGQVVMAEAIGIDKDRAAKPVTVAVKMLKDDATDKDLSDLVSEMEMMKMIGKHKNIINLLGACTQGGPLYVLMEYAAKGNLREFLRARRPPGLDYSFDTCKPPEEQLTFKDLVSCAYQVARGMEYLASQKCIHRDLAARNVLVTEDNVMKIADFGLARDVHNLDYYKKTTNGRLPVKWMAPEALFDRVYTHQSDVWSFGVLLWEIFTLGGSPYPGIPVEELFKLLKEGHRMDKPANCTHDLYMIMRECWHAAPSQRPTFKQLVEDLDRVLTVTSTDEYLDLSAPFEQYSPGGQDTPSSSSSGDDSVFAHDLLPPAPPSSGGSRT
Sequence of FGFR3 (P22607 23-806): as the sequence (P22607 23-806 V555M) above, with M533V counted along it
Sequence of FGFR2 (P21802 22-821): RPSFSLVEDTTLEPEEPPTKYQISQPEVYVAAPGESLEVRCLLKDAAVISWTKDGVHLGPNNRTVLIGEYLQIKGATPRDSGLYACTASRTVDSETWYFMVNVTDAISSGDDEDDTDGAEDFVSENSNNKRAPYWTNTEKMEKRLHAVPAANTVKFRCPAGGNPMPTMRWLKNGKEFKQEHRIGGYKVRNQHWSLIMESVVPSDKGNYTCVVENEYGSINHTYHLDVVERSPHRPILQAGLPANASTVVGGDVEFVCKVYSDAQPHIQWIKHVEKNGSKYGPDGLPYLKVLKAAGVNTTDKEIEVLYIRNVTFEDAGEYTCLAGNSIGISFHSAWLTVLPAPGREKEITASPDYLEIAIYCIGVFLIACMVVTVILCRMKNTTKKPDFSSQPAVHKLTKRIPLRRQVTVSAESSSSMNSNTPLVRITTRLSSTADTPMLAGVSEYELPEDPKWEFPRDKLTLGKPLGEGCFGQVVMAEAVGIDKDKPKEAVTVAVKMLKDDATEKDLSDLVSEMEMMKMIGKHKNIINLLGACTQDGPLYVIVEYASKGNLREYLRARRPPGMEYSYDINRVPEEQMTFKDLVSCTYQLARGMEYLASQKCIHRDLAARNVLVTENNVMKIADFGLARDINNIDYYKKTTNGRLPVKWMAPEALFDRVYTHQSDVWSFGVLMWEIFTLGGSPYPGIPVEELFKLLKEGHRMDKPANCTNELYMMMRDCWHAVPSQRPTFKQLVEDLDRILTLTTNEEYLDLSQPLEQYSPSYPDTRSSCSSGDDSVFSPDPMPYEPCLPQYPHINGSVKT
Sequence of FGFR1 (P11362 22-822): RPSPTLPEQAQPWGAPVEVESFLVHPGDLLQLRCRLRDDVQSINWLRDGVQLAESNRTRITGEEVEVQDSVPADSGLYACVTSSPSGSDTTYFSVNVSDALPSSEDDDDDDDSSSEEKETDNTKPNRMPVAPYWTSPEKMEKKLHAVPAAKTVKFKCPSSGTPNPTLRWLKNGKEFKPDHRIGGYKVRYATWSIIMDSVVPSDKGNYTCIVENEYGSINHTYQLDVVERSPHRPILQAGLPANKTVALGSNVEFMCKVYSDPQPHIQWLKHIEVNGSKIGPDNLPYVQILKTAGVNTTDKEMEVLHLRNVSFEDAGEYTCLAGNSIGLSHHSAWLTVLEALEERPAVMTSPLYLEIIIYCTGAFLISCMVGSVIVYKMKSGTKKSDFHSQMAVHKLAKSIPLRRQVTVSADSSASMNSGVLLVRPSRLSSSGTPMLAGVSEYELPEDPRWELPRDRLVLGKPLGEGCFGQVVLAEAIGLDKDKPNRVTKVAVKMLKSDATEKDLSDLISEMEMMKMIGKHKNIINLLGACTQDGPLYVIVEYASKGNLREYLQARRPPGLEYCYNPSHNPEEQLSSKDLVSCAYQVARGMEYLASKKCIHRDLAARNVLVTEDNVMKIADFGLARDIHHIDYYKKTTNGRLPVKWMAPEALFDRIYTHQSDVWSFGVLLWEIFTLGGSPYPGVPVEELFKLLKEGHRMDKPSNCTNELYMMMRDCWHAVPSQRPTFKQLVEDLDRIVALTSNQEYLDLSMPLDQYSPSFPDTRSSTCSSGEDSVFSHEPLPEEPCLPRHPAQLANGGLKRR
Sequence of FGFR4 (P22455 22-802): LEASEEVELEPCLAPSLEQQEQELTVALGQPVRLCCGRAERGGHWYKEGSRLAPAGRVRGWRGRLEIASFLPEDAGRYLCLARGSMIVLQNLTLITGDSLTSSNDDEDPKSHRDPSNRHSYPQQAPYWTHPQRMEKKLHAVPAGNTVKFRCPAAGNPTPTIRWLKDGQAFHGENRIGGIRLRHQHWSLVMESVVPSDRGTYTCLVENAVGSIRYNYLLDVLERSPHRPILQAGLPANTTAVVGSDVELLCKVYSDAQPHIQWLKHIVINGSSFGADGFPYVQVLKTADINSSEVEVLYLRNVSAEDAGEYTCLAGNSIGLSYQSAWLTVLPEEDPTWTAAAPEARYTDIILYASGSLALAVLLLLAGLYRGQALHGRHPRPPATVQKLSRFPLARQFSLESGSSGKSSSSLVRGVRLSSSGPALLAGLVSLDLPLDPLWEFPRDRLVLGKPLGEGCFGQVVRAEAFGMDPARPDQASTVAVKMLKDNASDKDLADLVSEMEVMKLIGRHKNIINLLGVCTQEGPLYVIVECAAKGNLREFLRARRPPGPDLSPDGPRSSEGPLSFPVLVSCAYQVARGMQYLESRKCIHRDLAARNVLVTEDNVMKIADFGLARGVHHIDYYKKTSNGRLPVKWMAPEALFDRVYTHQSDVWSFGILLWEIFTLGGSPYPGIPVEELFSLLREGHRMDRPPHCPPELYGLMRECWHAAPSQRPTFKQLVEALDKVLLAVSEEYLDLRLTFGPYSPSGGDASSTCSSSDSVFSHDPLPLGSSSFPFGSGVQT

For the compound `C[C@@H](Oc1ccc2[nH]nc(-c3cnn(C4CCN(C5CCC5)CC4)c3)c2c1)c1cc(F)cc(F)c1` [Example 167, 3-[1-(1-cyclobutyl-4-piperidyl)pyrazol-4-yl]-5-[(1R)-1-(3,5-difluorophenyl)ethoxy]-1H-indazole], the Kd at FGFR4 is above 300 nM; at FGFR2, 20 to 100 nM; on FGFR3, 20 to 100 nM; at FGFR3 (V555M), 1 to 20 nM; on FGFR1, 20 to 100 nM.

`C[C@@H](Oc1ccc2[nH]nc(-c3ccc(N4CC5(CNC5)C4)nc3)c2c1)c1cc(F)cc(F)c1` [Example 169, 3-[6-(2,6-diazaspiro[3.3]heptan-2-yl)-3-pyridyl]-5-[(1R)-1-(3,5-difluorophenyl)ethoxy]-1H-indazole]: the Kd lay within 20 to 100 nM on FGFR4; 20 to 100 nM at FGFR2; 1 to 20 nM at FGFR3; 1 to 20 nM on FGFR3 (V555M); 20 to 100 nM on FGFR1.

On to `C[C@@H](Oc1ccc2[nH]nc(-c3cnn(C4CCS(=O)(=O)CC4)c3)c2c1)c1cc(F)cc(F)c1` [Example 171, 4-[4-[5-[(1R)-1-(3,5-difluorophenyl)ethoxy]-1H-indazol-3-yl]pyrazol-1-yl]thiane 1,1-dioxide], for which the Kd on FGFR4 is above 300 nM; on FGFR2, 20 to 100 nM; at FGFR3 it was 20 to 100 nM; at FGFR3 (V555M), 1 to 20 nM; on FGFR1, 100 to 300 nM.

As for `C[C@@H](Oc1ccc2[nH]nc(-c3ccc(N4CC5(C4)CN(S(C)(=O)=O)C5)nc3)c2c1)c1cc(F)cc(F)c1` [Example 172, 5-[(1R)-1-(3,5-difluorophenyl)ethoxy]-3-[6-(2-methylsulfonyl-2,6-diazaspiro[3.3]heptan-6-yl)-3-pyridyl]-1H-indazole], the Kd at FGFR4 lay within 20 to 100 nM; on FGFR2, 20 to 100 nM; at FGFR3 it was 1 to 20 nM; on FGFR3 (V555M) it was 1 to 20 nM; on FGFR1, 100 to 300 nM.

As to `Cc1cnnc(C)c1[C@@H](C)Oc1ccc2[nH]nc(-c3ccc(N4CCN5CCC[C@H]5C4)nc3)c2c1` [Example 174, 3-[6-[(8aS)-3,4,6,7,8,8a-hexahydro-1H-pyrrolo[1,2-a]pyrazin-2-yl]-3-pyridyl]-5-[(1R)-1-(3,5-dimethylpyridazin-4-yl)ethoxy]-1H-indazole], the Kd at FGFR4, at FGFR2, on FGFR3, at FGFR3 (V555M) and on FGFR1 was 1 to 20 nM each time.

As for `Cc1cnnc(C)c1[C@@H](C)Oc1ccc2[nH]nc(-c3ccc(N4CCN5CCC[C@@H]5C4)nc3)c2c1` [Example 175, 3-[6-[(8aR)-3,4,6,7,8,8a-hexahydro-1H-pyrrolo[1,2-a]pyrazin-2-yl]-3-pyridyl]-5-[(1R)-1-(3,5-dimethylpyridazin-4-yl)ethoxy]-1H-indazole], the Kd at FGFR4, at FGFR2, on FGFR3, on FGFR3 (V555M) and on FGFR1 was 1 to 20 nM throughout.

Regarding `Cc1cnnc(C)c1[C@@H](C)Oc1ccc2[nH]nc(-c3ccc(N4CCN5C[C@H](O)C[C@H]5C4)nc3)c2c1` [Example 176, (7R,8aS)-2-[5-[5-[(1R)-1-(3,5-dimethylpyridazin-4-yl)ethoxy]-1H-indazol-3-yl]-2-pyridyl]-3,4,6,7,8,8a-hexahydro-1H-pyrrolo[1,2-a]pyrazin-7-ol], the Kd at FGFR4, on FGFR2, on FGFR3, on FGFR3 (V555M) and on FGFR1 was 1 to 20 nM in each case.

Turning to `Cc1ncc(Cl)c([C@@H](C)Oc2ccc3[nH]nc(-c4ccc(N5CC6(CNC6)C5)nc4)c3c2)c1Cl` [Example 177, 3-[6-(2,6-diazaspiro[3.3]heptan-2-yl)-3-pyridyl]-5-[(1R)-1-(3,5-dichloro-2-methyl-4-pyridyl)ethoxy]-1H-indazole], the Kd on FGFR4 was in the range of 1 to 20 nM; on FGFR2, 20 to 100 nM; on FGFR3, 1 to 20 nM; on FGFR3 (V555M), 1 to 20 nM; on FGFR1, 1 to 20 nM.
